# Measurements: patent US12612358B2, “Resorcinol-based compounds and uses thereof” (priority 2020, dated 2026)
# Experiments:
# BXPC-3 = test: CellTiter-Glo cell proliferation, BxPC-3 pancreatic cancer cells; type: cell-based; details: Homo sapiens, read-out: IC50 category
# From the text: Cell culture and treatment of pancreatic cancer cell lines: Pancreatic cancer cells lines BxPC-3, SW1990, and PANC-1 used in the experiments presented herein can be obtained from ATCC. The cells can be cultured and passaged in complete growth medium (RPMI-1640, Dulbecco's Modified Eagle Medium, or Leibovitz's L-15 medium) that has been supplemented with fetal bovine serum to a final concentration of 10%.
# Effects of Compound-5B on proliferation and Id-1 expression in pancreatic cell lines. Compound-5B was next tested for inhibition of cell viability/proliferation in the three pancreatic cancer cell lines and two primary patient-derived cancer cell lines. Compound-5B inhibited cell viability/proliferation of all the cancer cell lines (Table 2). The culturing condition for the pancreatic cell lines was similar to those used in the breast cancer lines, with the exception of the primary patient-derived pancreatic cancer cell lines (PANC9 and PANC13). […] Cell proliferation of pancreatic cells in the presence of drug was measured using the CellTiter-Glo luminescent Assay and IC50 values were calculated (Table 2). […]
# Id-1 = Id-1 expression in PANC-1 cells (Western analysis); type: cell-based, human
# Protocol: Quantitative Western analysis: Cells are cultured and treated in 6-well dishes. After the cells are washed twice with cold PBS, lysis buffer is added. The cells are then lysed by freezing for 10 min at −70° C. and then thawing at ambient temperature. The cell lysate is collected and the protein content is determined by using Bradford reagent. Equal amounts of protein are heated at 90° C. in Laemmli sample buffer which also included β-mercaptoethanol. The samples are then loaded onto a precast SDS-PAGE gel (Bio-Rad Laboratories, Hercules, CA). After which, proteins are then electroblotted onto an Immobilon membrane (Millipore, Billerica, MA) overnight at 2-4° C. The membrane is then blocked for 1 hour with 5% nonfat dry milk which included TBS+Tween. The membranes are then incubated with an anti-Id-1 primary antibody, and then an appropriate secondary antibody was used. Blots are incubated for 45 min and then washed 4 times with TBS+Tween for 15 min each. The blots are developed with SuperSignal Femto (Pierce, Rockford, IL), and imaged on either a Fluorchem 8900 (Alpha Innotech, San Leandro, CA) or ECL Hyperfilm (Amersham-Pharmacia, Piscataway, NJ). Band intensity values are obtained (after background subtraction) directly from the […] using AlphaeaseFC software (San Leandro, CA) or from film using Image-J (NIH, MD). […]
# MDA-MB231 cells = test: Invasion in modified Boyden chambers, MDA-MB231 cells; type: cell-based, human
# Protocol: Effects of Compound-5B on breast cancer cell proliferation, Id-1 expression and invasion in culture. […] The ability of the cells to migrate and invade in modified Boyden chambers was determined. The percentage relative invasion was calculated as the effect on treated cells/vehicle cells×100. Respective controls (vehicle treated cells) were set as 100%.
# CYP2C9 = target: T1, CYP2C9 (Homo sapiens, UniProt P11712); test: CYP2C9 inhibition; type: in vitro ADME; details: 10 μM
# T1 construct: purchased Eurofins
# Protocol: Evaluating ADME of Compound-5B in vitro. It is important to evaluate ADME first in culture as it allows for the selection of the best candidate for PK analysis in vivo. ADME analysis of Compound-5B was performed by Eurofins.
# [1] = target: T2, ADRB2 (β-Adrenergic receptor) (Homo sapiens, UniProt P07550); test: SAFETY scan E/IC50 ELECT, ADRB2; type: biochemical; details: read-out: inhibition against ADRB2 (mild)
# T2 construct: purchased Eurofin's
# T2 sequence (P07550 whole entry): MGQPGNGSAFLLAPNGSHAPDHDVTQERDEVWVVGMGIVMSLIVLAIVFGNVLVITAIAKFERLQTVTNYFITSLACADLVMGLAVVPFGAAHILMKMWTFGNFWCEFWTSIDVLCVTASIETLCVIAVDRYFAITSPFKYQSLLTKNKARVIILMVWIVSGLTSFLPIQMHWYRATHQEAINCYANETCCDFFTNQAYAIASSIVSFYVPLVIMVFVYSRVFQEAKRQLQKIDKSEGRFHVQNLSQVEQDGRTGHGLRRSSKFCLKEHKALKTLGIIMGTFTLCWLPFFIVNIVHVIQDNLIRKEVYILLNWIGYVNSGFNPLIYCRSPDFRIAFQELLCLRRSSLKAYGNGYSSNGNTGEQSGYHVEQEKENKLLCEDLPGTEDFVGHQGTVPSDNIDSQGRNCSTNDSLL
# T1 sequence (P11712 whole entry): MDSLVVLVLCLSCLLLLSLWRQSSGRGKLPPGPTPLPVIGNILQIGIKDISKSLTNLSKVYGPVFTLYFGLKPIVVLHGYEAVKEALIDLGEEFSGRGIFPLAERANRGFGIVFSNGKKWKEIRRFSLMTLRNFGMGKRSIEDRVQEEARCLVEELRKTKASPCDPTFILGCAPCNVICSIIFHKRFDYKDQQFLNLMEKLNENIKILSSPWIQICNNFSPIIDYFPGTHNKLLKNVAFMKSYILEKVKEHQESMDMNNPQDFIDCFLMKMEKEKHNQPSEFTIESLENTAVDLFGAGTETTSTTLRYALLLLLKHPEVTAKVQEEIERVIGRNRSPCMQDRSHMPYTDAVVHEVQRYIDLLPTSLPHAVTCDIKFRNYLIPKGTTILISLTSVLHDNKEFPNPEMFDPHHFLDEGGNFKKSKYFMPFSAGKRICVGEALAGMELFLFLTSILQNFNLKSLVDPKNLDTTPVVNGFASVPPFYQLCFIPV
compound,measurement,setting,value
"CCCCCCC(C)(C)c1cc(O)c(C(=O)Nc2ccccc2)c(O)c1 [Compound 5B, 2,6-dihydroxy-4-(2-methyloctan-2-yl)-N-phenylbenzamide]",IC50,BXPC-3,1000 to 5000 nM
same,inhibition of Id-1 expression,Id-1,able to effectively inhibit Id-1 expression
same,invasion of MDA-MB231 cells,MDA-MB231 cells,inhibits the invasion
same,inhibition of CYP2C9,CYP2C9,some inhibition
same,IC50,[1],640 to 750 nM
